# Read-outs that look alike come from different tables or passages of the source.
# Tests used:
# [1] = system: rat model of acute renal injury (colistin-induced); experiment: Colistin-induced acute renal injury in rats: serum creatinine and urea; format: in vivo
# Experimental: Rats were injected I.P. on the left side of the animals with a 30 mg/kg dose of colistin once a day for eight consecutive days.
# [2] = system: mouse model of renal injury (colistin-induced); experiment: Colistin-induced acute renal injury, mouse model; format: in vivo; settings: very low doses of zileuton
# [3] = monkeys; estimated from oral studies; from U.S. Pat. No. 5,629,337; cited from earlier work
# [4] = dogs; estimated from oral studies; from U.S. Pat. No. 5,629,337; cited from earlier work
# [5] = system: cisplatin-induced renal damage; settings: rats; cited from earlier work
# mouse N2a neuronal cells = settings: cited from earlier work
# [6] = system: central and peripheral nerve tissues; settings: colistin 15 mg/kg/day for 7 days in mice; cited from earlier work
# [7] = rat serum, day 1 prior to dosing, colistin 30 mg/kg I.P. once a day, zileuton 3 mg/kg I.P., edaravone 15 mg/kg I.P. or atorvastatin 25 mg/kg P.O.
# [8] = rat serum, day 4, colistin 30 mg/kg I.P. once a day, zileuton 3 mg/kg I.P., edaravone 15 mg/kg I.P. or atorvastatin 25 mg/kg P.O.
# [9] = rat serum, day 8, colistin 30 mg/kg I.P. once a day, zileuton 3 mg/kg I.P., edaravone 15 mg/kg I.P. or atorvastatin 25 mg/kg P.O.
compound,measurement,setting,value
"CC(c1cc2ccccc2s1)N(O)C(N)=O (racemic) [zileuton, (±) 1-[1-(1-benzothiophen-2-yl)ethyl]-1-hydroxyurea]",Inhibition of colistin-induced acute renal injury,"[1]; very low doses of zileuton, rat model",potent inhibition
same,Effect on colistin-induced elevation of creatinine and urea levels,"[1]; zileuton I.P. around 3 mg/kg, colistin 30 mg kg, rat",blocks the elevation of creatinine and urea levels
same,Inhibition of colistin-induced acute renal injury,[2],potent inhibition
same,elimination half-life,[3],0.333 h
same,elimination half-life,[4],7 h
same,Protection against cisplatin-induced renal damage,[5],protect rats against cisplatin-induced renal damage
CC(C)c1c(C(=O)Nc2ccccc2)c(-c2ccccc2)c(-c2ccc(F)cc2)n1CC[C@@H](O)C[C@@H](O)CC(=O)O [atorvastatin],Effect on colistin-induced elevation of creatinine and urea levels,"[1]; colistin 3 mg/kg/diem over eight days, rats",blocks the elevation of creatinine and urea levels
CCN(CC)CCCC(C)Nc1ccnc2cc(Cl)ccc12 (centres unmarked) [chloroquine],Effect on colistin-induced apoptosis,mouse N2a neuronal cells; inhibition of autophagy by chloroquine,enhances colistin-induced apoptosis
"CC1=NN(c2ccccc2)C(=O)C1 [edaravone, 5-methyl-2-phenyl-4H-pyrazol-3-one]",Protection against cisplatin-induced renal damage,[5],protect rats against cisplatin-induced renal damage
Colistin Sulfate,Mean Creatinine Day 1,[1]; [7],0.44 mg/dL
same,Mean Urea Day 1,[1]; [7],37 mg/dL
same,Mean Creatinine Day 4,[1]; [8],0.71 mg/dL
same,Mean Urea Day 4,[1]; [8],69 mg/dL
same,Mean Creatinine Day 8,[1]; [9],0.96 mg/dL
same,Mean Urea Day 8,[1]; [9],85 mg/dL
colistin,Mitochondrial dysfunction in nerve tissues,[6],induced mitochondrial dysfunction in central and peripheral nerve tissues
same,Apoptosis of neuronal cells,mouse N2a neuronal cells; 200 μM colistin for 24 h,become apoptotic

# Reference: US20210369669A1, “AUTOPHAGY ACTIVATORS AND INHIBITORS OF FERROPTOSIS FOR PREVENTING ACUTE RENAL FAILURE AND NEUROTOXCITY INDUCED BY CERTAIN ANTIBIOTICS” (SystaMedic Inc., priority 2018, published 2021)
